Tested on: ATF4 luciferase reporter in HEK293T cells
Assay: ATF4-Luc assay (in vitro model of VWMD)
Type: cell-based, human
Conditions: Homo sapiens, HEK-293T, 7 h, HEK293T cells carrying the ATF4 luciferase reporter, 1 μg/mL tunicamycin, One Glo luminescence
How it was run: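 Stable HEK293T line expressing firefly luciferase behind the human ATF4 5′-UTR, treated with 1 μg/mL tunicamycin plus compound for 7 hours. Luminescence read with One Glo; EC50 determined.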

| Compound | EC50 [nM] |
| --- | --- |
| O=C(NC12CC(n3cc(C4CC(OC(F)(F)F)C4)nn3)(C1)C2)[C@H]1C[C@@H](O)c2cc(C(F)(F)F)ccc2O1 (stereo partly drawn) [Compound 470, (2R,4R)-4-hydroxy-N-(3-{4-[(1s,3S)-3-(trifluoromethoxy)cyclobutyl]-1H-1,2,3-triazol-1-yl}bicyclo[1.1.1]pentan-1-yl)-6-(trifluoromethyl)-3,4-dihydro-2H-1-benzopyran-2-carboxamide] | < 10 |
| O=C(NC12CC(n3cc(C(=O)N4CCC(C(F)(F)F)C4)cn3)(C1)C2)[C@H]1C[C@@H](O)c2cc(Cl)ccc2O1 (stereo partly drawn) [Compound 535, (2R,4R)-6-chloro-4-hydroxy-N-(3-{4-[3-(trifluoromethyl)pyrrolidine-1-carbonyl]-1H-pyrazol-1-yl}bicyclo[1.1.1]pentan-1-yl)-3,4-dihydro-2H-1-benzopyran-2-carboxamide] | 10 to 50 |
| O=C(NC12CC(n3cc(OCCCC(F)(F)F)cn3)(C1)C2)[C@H]1C[C@H](O)c2cc(C(F)(F)F)c(F)cc2O1 [Compound 642, (2R,4S)-7-fluoro-4-hydroxy-N-{3-[4-(4,4,4-trifluorobutoxy)-1H-pyrazol-1-yl]bicyclo[1.1.1]pentan-1-yl}-6-(trifluoromethyl)-3,4-dihydro-2H-1-benzopyran-2-carboxamide] | 10 to 50 |
| O=C(NC12CC(n3cc(NCCCOC(F)(F)F)cn3)(C1)C2)[C@H]1C[C@@H](O)c2cc(Cl)ccc2O1 [Compound 444, (2R,4R)-6-chloro-4-hydroxy-N-[3-(4-{[3-(trifluoromethoxy)propyl]amino}-1H-pyrazol-1-yl)bicyclo[1.1.1]pentan-1-yl]-3,4-dihydro-2H-1-benzopyran-2-carboxamide] | < 10 |
| O=C(NC12CC(n3cc(O[C@H]4C[C@@H](OC(F)(F)F)C4)cn3)(C1)C2)[C@H]1C[C@@H](O)c2cc(Cl)ccc2O1 [Compound 409, (2R,4R)-6-chloro-4-hydroxy-N-[3-(4-{[cis-3-(trifluoromethoxy)cyclobutyl]oxy}-1H-pyrazol-1-yl)bicyclo[1.1.1]pentan-1-yl]-3,4-dihydro-2H-1-benzopyran-2-carboxamide] | < 10 |
| O=C(NC12CC(c3ccnc(-n4cc(C(F)(F)F)cn4)c3)(C1)C2)[C@H]1C[C@@H](O)c2cc(Cl)c(F)cc2O1 [Compound 561, (2R,4R)-6-chloro-7-fluoro-4-hydroxy-N-(3-{2-[4-(trifluoromethyl)-1H-pyrazol-1-yl]pyridin-4-yl}bicyclo[1.1.1]pentan-1-yl)-3,4-dihydro-2H-1-benzopyran-2-carboxamide] | < 10 |
| O=C(NC12CC(n3cc(-c4ccc(OC(F)(F)F)cn4)cn3)(C1)C2)[C@H]1C[C@@H](O)c2cc(F)c(F)cc2O1 [Compound 369, (2R,4R)-6,7-difluoro-4-hydroxy-N-(3-{4-[5-(trifluoromethoxy)pyridin-2-yl]-1H-pyrazol-1-yl}bicyclo[1.1.1]pentan-1-yl)-3,4-dihydro-2H-1-benzopyran-2-carboxamide] | < 10 |
| COc1ccc2nn(C34CCC(NC(=O)COc5ccc(Cl)c(F)c5)(CC3)[C@@H](O)C4)cc2c1 [Compound 597, 2-(4-chloro-3-fluorophenoxy)-N-[(2S)-2-hydroxy-4-(5-methoxy-2H-indazol-2-yl)bicyclo[2.2.2]octan-1-yl]acetamide] | 10 to 50 |
| O=C(NC12CC(n3cnc(C(=O)N4CC[C@H](OC(F)(F)F)C4)c3)(C1)C2)[C@H]1C[C@@H](O)c2cc(Cl)ccc2O1 [Compound 386, (2R,4R)-6-chloro-4-hydroxy-N-(3-{4-[(3S)-3-(trifluoromethoxy)pyrrolidine-1-carbonyl]-1H-imidazol-1-yl}bicyclo[1.1.1]pentan-1-yl)-3,4-dihydro-2H-1-benzopyran-2-carboxamide] | < 10 |
| COc1ncc(-c2cnn(C34CC(NC(=O)[C@@H]5C[C@H](O)c6cc(Cl)ccc6O5)(C3)C4)c2)cn1 [Compound 319, (2S,4S)-6-chloro-4-hydroxy-N-{3-[4-(2-methoxypyrimidin-5-yl)-1H-pyrazol-1-yl]bicyclo[1.1.1]pentan-1-yl}-3,4-dihydro-2H-1-benzopyran-2-carboxamide] | 250 to 500 |
